18 compounds from ChEMBL document CHEMBL3217501, “Synthesis and biological evaluation of tetrazole containing compounds as possible anticancer agents” (Medchemcomm, 2011) can be followed below.

The source made the active and inactive calls. The rule behind the calls is not given here.

One test deals with DU-145. Kind of test: Cytotoxicity against human DU145 cells assessed as growth inhibition after 48 hrs by SRB assay. The format is functional, cell-based. Conditions: DU-145, 48 h. A general note: In SRB staining, fixed cells bind dye roughly in proportion to their protein.
For another test, the system named is A549. In words: Cytotoxicity against human A549 cells assessed as growth inhibition after 48 hrs by SRB assay. It counts as functional, cell-based. The conditions noted are these: A549, 48 h.
Another test deals with SK-N-SH. In words: Cytotoxicity against human SK-N-SH cells assessed as growth inhibition after 48 hrs by SRB assay. It counts as functional, cell-based.
The test system of a further test is HepG2. Kind of test: Cytotoxicity against human HepG2 cells assessed as growth inhibition after 48 hrs by SRB assay. It counts as functional, cell-based. Conditions: HepG2, 48 h.
A further test relates to MDA-MB-231. Kind of test: Cytotoxicity against human MDA-MB-231 cells assessed as growth inhibition after 48 hrs by SRB assay. It counts as functional, cell-based. Conditions: MDA-MB-231, 48 h.
Test [1] deals with Calf thymus DNA. Kind of test: Binding affinity to calf thymus DNA by fluorescence spectroscopic analysis. It counts as nucleic-acid assay. Conditions: Bos taurus.
In test [2] the test system is Calf thymus DNA. In words: Binding affinity to calf thymus DNA assessed as compound-DNA complex formation by UV-Vis absorption spectroscopic analysis. The format is nucleic-acid assay. Conditions: Bos taurus.

By IC50 is commonly meant the concentration at which inhibition is half-maximal.

Consider `COC(=O)/C(=C/c1ccccc1[N+](=O)[O-])Cn1cnnn1`, for which the IC50 came to 10.2 µM in the test with DU-145; 6.88 µM in the test on A549; 19.8 µM in the test with SK-N-SH; 4.33 µM in the test with HepG2; 43.7 µM with MDA-MB-231.
In the same order, the values of `CCOC(=O)/C(=C/c1ccccc1Br)Cn1cnnn1` are 7.79 µM, 5.94 µM, 16.3 µM, 3.33 µM and 14.8 µM.
On the same counts, the results for `COC(=O)/C(=C/c1ccccc1)Cn1cnnn1` are 9.02 µM, 7.91 µM, 31.6 µM, 10.7 µM and 16.4 µM.
For the compound `COC(=O)/C(=C/c1ccc(OC)cc1)Cn1cnnn1`, the IC50 with DU-145 worked out at 5.6 µM; in the test with A549 it was 3.83 µM; with SK-N-SH, 7.9 µM; in the test with HepG2, 6.65 µM; in the test with MDA-MB-231, 21 µM.
On the same counts, the results for `COc1ccc(/C=C(\C#N)Cn2cnnn2)cc1` are 19.4 µM, 23.8 µM, 64.2 µM, 27.4 µM and 20.3 µM.
As to `CCOC(=O)/C(=C/c1ccc(Cl)cc1)Cn1cnnn1`, the IC50 in the test with DU-145 was 8.44 µM; in the test with A549 it was 3.18 µM; in the test on SK-N-SH, 28.2 µM; in the test on HepG2, 3 µM; in the test with MDA-MB-231 it was 23.9 µM.
In the same order, the values of `Cc1ccc(/C=C(\C#N)Cn2cnnn2)cc1` are 7.3 µM, 7.95 µM, 20.1 µM, 6.56 µM and 25.7 µM.
In the case of `Cc1nnnn1C/C(C#N)=C/c1cccc2ccccc12`, the concentration for half-maximal inhibition (IC50) in the test with DU-145 came to 5.76 µM; in the test on A549, 2.95 µM; in the test with SK-N-SH, 13.7 µM; in the test with HepG2 it was 2.6 µM; with MDA-MB-231, 14.1 µM. Besides, the outcome with Calf thymus DNA [1] was Active. In addition, in the test on Calf thymus DNA [2], the Kb is 0.75 ×10⁵ /M.
Turning to `N#C/C(=C\c1ccc(C(F)(F)F)cc1)Cn1cnnn1`, the IC50 in the test with DU-145 stood at 5.92 µM; in the test with A549, 3.51 µM; in the test on SK-N-SH it was 11.8 µM; in the test on HepG2 it was 1.65 µM; with MDA-MB-231 it was 8.7 µM.
In the same order, the values of `Cc1nnnn1C/C(C#N)=C/c1ccc(F)cc1` are 7.19 µM, 6.4 µM, 20.2 µM, 7.29 µM and 28.8 µM.
On the same counts, the results for `COC(=O)/C(=C/c1ccc([N+](=O)[O-])cc1)Cn1cnnn1` are 5.5 µM, 2.84 µM, 22.3 µM, 2.07 µM and 9.14 µM.
`CCOC(=O)/C(=C/c1ccc(Br)cc1)Cn1cnnn1`: the IC50 in the test on DU-145 was determined as 5.5 µM; with A549, 4.78 µM; in the test on SK-N-SH, 27.3 µM; in the test on HepG2, 4.89 µM; in the test with MDA-MB-231 it was 18.9 µM.
In the same order, the values of `COc1cc([C@@H]2c3cc4c(cc3[C@H](O)[C@H]3COC(=O)[C@H]23)OCO4)cc(OC)c1OC` [PODOFILOX] are < 0.1 µM, < 0.1 µM, < 0.1 µM, < 0.1 µM and < 0.1 µM.
In the case of `COC(=O)Nc1nc2cc(C(=O)c3cccs3)ccc2[nH]1` [NOCODAZOLE], the IC50 in the test with DU-145, in the test on A549, in the test with SK-N-SH, in the test with HepG2 and with MDA-MB-231 was < 0.1 µM each time.
Take `N#C/C(=C\c1ccccc1)Cn1cnnn1`: the IC50 came to 9.45 µM in the test on DU-145; 9.99 µM in the test with A549; 23.3 µM with SK-N-SH; 5.83 µM in the test with HepG2; 18.4 µM in the test on MDA-MB-231.
In the same order, the values of `COC(=O)/C(=C/c1ccc(F)cc1)Cn1cnnn1` are 8.57 µM, 6.9 µM, 18.3 µM, 12.1 µM and 15.9 µM.
For `COC(=O)/C(=C/c1ccc(C)cc1)Cn1cnnn1`, the IC50 is 8.42 µM in the test on DU-145; 16 µM in the test on A549; 71.7 µM with SK-N-SH; 10.7 µM with HepG2; 62.6 µM in the test on MDA-MB-231.
In the same order, the values of `N#C/C(=C\c1cccc2ccccc12)Cn1cnnn1` are 7.36 µM, 5.7 µM, 16.9 µM, 7.11 µM and 31.4 µM.
